# Target: T1, SMS2 (Homo sapiens, UniProt Q8NHU3)
# T1 construct: CAO, Yu research team, National Protein Scientific Center (Shanghai); supplied by an outside laboratory, not a commercial vendor
# T1 sequence (Q8NHU3 1-365): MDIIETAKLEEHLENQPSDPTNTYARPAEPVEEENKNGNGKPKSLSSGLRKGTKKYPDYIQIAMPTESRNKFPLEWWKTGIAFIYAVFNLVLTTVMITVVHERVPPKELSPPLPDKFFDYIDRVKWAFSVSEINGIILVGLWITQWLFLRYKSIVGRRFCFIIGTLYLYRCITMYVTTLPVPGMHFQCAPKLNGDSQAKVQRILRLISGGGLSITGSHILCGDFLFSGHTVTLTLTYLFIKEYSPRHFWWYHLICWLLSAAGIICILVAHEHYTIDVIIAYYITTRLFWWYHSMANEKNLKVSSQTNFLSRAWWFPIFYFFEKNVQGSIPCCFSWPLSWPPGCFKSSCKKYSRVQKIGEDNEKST
# Experiment: SMS2 inhibitory activity in vitro, HPLC fluorescence quantitative detection (C6-NBD-ceramide to C6-NBD-SM)
# Type: biochemical
# Settings: 1 µM test compound; SMS2 pure enzyme; 37°C, 30 minutes; average of two measurements; read-out: Inhibition rate on SMS2 at C/µM 1
# From the text: • 1. Electro-thermostatic water bath, from Shanghai Yiheng Technology Co., Ltd.); • 2. Vortex Mixer, with model ID of XW-80A, from Shanghai Jingke Industrial Co., Ltd.; • 3. […] High Performance Liquid Chromatography Agilent 1100, equipped with a quaternary pump, vacuum degassing, and FLD fluorescence detector, from Agilent Technologies, Palo Alto, CA, USA; • 5. HPLC column COSMOSIL 5C18-MS-II (4.6mm I.D. X 250mm); • 6. […] The organic solvents used in the present disclosure were purchased from Shanghai National Reagent Company, wherein methanol was pure chromatography; water was ultra-pure water which is filtrated by Milli-Q pump, deionized and ultra-filtrated with 0.22 µm membrane; and other biological consumables were purchased from domestic companies; • 8. Preparation of test compound solutions: each test compound was accurately weighed and dissolved in an appropriate volume of DMSO to prepare a 10 mmol/L stock solution. The stock solution was then diluted with an appropriate volume of DMSO to achieve the desired working concentration; • 9. SMS2 pure enzyme, DDM solution and buffer solution were provided by CAO, Yu research team from National Protein Scientific Center (Shanghai).
# 79 µl of the diluted enzyme solution were transferred into a 1.5 mL EP tube, 1 µl of inhibitor DMSO solution were added thereto, vortexing for 15 seconds, followed by standing at room temperature for 5 minutes. 20 µl of a mixed solution of DMPC and C6-NBD-ceramide were added, vortexing for 15 seconds, and incubated at 37°C for 30 minutes. 200 µl of anhydrous ethanol were added to quench the reaction, vortexing for 15 seconds. 200 µl of the reaction solution were taken out and stored at 4°C and avoided light for HPLC detection.
# The peak area values of A(sm) and A(ceramide) in the HPLC chromatogram corresponding to C6-NBD-SM and C6-NBD-Ceramide in the DMSO group and inhibitor group samples were analyzed and recorded, and the inhibition rate of the test compound was calculated according to the following formula. Inhibition rate = (Peak area values of DMSO group−Peak area values of Inhibitor group)/(Peak area values of DMSO group) × 100% [formula]
row,Structure (SMILES),inhibition at 1 µM
1,"O=C(Nc1cc(C(F)(F)F)ccn1)c1sccc1OCc1ccccc1 [1-5, 3-benzyloxy-N-(4-(trifluoromethyl)pyridin-2-yl)thiophene-2-carboxamide]",47%
2,"O=C(Nc1cccnc1)c1sccc1OCc1cccc2ccccc12 [1-10, 3-(naphthalen-1-ylmethoxy)-N-(pyridin-3-yl)thiophene-2-carboxamide]",86%
3,"O=C(Nc1cccnc1)c1sccc1OCc1cccc2cccnc12 [1-12, N-(pyridin-3-yl)-3-(quinolin-8-ylmethoxy)thiophene-2-carboxamide]",68%
4,"O=C(Nc1cccnc1)c1sccc1OCc1c2ccccc2cc2ccccc12 [1-13, 3-(anthracen-9-ylmethoxy)-N-(pyridin-3-yl)thiophene-2-carboxamide]",50%
5,"COc1ccc2ccccc2c1COc1ccsc1C(=O)Nc1cccnc1 [1-16, 3-[(2-methoxynaphthalen-1-yl)methoxy]-N-(pyridin-3-yl)thiophene-2-carboxamide]",78%
6,"O=C(Nc1cc(Cl)cc(Cl)n1)c1sccc1OCc1ccccc1 [1-20, 3-benzyloxy-N-(4,6-Dichloropyridin-2-yl)thiophene-2-carboxamide]",50%
7,"O=C(Nc1cccnc1)c1sccc1OCc1cc(O)ccc1Cl [1-24, 3-(2-chloro-5-hydroxybenzyloxy)-N-(pyridin-3-yl)thiophene-2-carboxamide]",78%
8,O=C(Nc1cccnc1)c1sccc1OCc1cc(OP(=O)(O)O)ccc1Cl [1-26],13%
9,"CCCCCOc1cccc(Cl)c1COc1ccsc1C(=O)Nc1cccnc1 [1-38, 3-(2-(n-pentyloxy)-6-chlorobenzyloxy)-N-(pyridin-3-yl)thiophene-2-carboxamide]",91%
10,"CCCOc1cccc(Cl)c1COc1ccsc1C(=O)Nc1cccnc1 [1-39, 3-(2-chloro-6-propoxybenzyloxy)-N-(pyridin-3-yl)thiophene-2-carboxamide]",74%
11,"Cc1cc(OCc2ccccc2)c(C(=O)Nc2cccnc2)s1 [1-40, 3-benzyloxy-5-methyl-N-(pyridin-3-yl)thiophene-2-carboxamide]",23%
12,"O=C(Nc1cccnc1)c1sccc1OCc1ccccc1OC(F)(F)F [1-53, 3-(2-(trifluoromethoxy)benzyloxy)-N-(pyridin-3-yl)thiophene-2-carboxamide]",87%
13,"O=C(Nc1cccnc1)c1sccc1OCc1ccccc1C(F)(F)F [1-59, 3-(2-(trifluoromethyl)benzyloxy)-N-(pyridin-3-yl)thiophene-2-carboxamide]",71%

# Results, then the molecule that gave them:
row,inhibition at 1 µM,Structure (SMILES)
1,72%,"Cc1ccccc1COc1ccsc1C(=O)Nc1cccnc1 [1-41, 3-(2-methylbenzyloxy)-N-(pyridin-3-yl)thiophene-2-carboxamide]"
2,69%,"Cc1cccc(COc2ccsc2C(=O)Nc2cccnc2)c1 [1-43, 3-(3-methylbenzyloxy)-N-(pyridin-3-yl)thiophene-2-carboxamide]"
3,54%,"O=C(Nc1cccnc1)c1sccc1OCc1ccccc1F [1-44, 3-(2-fluorobenzyloxy)-N-(pyridin-3-yl)thiophene-2-carboxamide]"
4,67%,"O=C(Nc1cccnc1)c1sccc1OCc1cccc(F)c1 [1-45, 3-(3-fluorobenzyloxy)-N-(pyridin-3-yl)thiophene-2-carboxamide]"
5,70%,"COc1cccc(COc2ccsc2C(=O)Nc2cccnc2)c1 [1-58, 3-(3-methoxybenzyloxy)-N-(pyridin-3-yl)thiophene-2-carboxamide]"

# Same assay, conditions: 10 µM test compound; SMS2 pure enzyme; 37°C, 30 minutes; average of two measurements; read-out: Inhibition rate on SMS2 at C/µM 10
row,Structure (SMILES),inhibition at 10 µM
1,"O=C(Nc1cccnn1)c1sccc1OCc1ccccc1 [1-4, 3-benzyloxy-N-(pyridazin-3-yl)thiophene-2-carboxamide]",63%
2,"O=C(Nc1cc(Cl)ccn1)c1sccc1OCc1ccccc1 [1-6, 3-benzyloxy-N-(4-chloropyridin-2-yl)thiophene-2-carboxamide]",50%
3,"O=C(Nc1ccccc1)c1sccc1OCc1ccccc1 [1-7, 3-benzyloxy-N-phenylthiophen-2-carboxamide]",50%
4,"CC(C)(O)COc1ccc(F)cc1COc1ccsc1C(=O)Nc1cccnc1 [1-8, 3-(5-fluoro-2-(2-hydroxy-2-methylpropoxy)benzyloxy)-N-(pyridin-3-yl)thiophene-2-carboxamide]",56%
5,"O=C(Nc1cccc(O)n1)c1sccc1OCc1ccccc1 [1-9, 3-benzyloxy-N-(6-hydroxypyridine-2-yl)thiophene-2-carboxamide]",50%
6,"O=C(Nc1cccnc1)c1sc([N+](=O)[O-])cc1OCc1ccccc1 [1-14, 3-benzyloxy-5-nitro-N-(pyridin-3-yl)thiophene-2-carboxamide]",50%
7,"O=C(Nc1cccnc1)c1scc(Br)c1OCc1ccccc1 [1-15, 3-benzyloxy-4-bromo-N-(pyridin-3-yl)thiophene-2-carboxamide]",53%
8,"O=C(O)CCCCCOc1ccccc1COc1ccsc1C(=O)Nc1cccnc1 [1-17, 6-(2-[(2-(pyridin-3-ylcarbamoyl)thiophene-3-yl)oxymethyl]phenoxy)hexanoic acid]",50%
9,"CCOC(=O)CCCCCOc1ccccc1COc1ccsc1C(=O)Nc1cccnc1 [1-18, 6-(2-[(2-(pyridin-3-ylcarbamoyl)thiophene-3-yl)oxymethyl]phenoxy)ethyl hexanoate]",97%
10,"O=C(Nc1cccnc1)c1sccc1OCc1cccc2c1Oc1c(F)c(F)c(F)c(F)c1O2 [1-19, N-(pyridin-3-yl)-3-[(6,7,8,9-tetrafluorodibenzo[b,e][1,4]dioxin-1-yl)methoxy]thiophene-2-carboxamide]",77%
11,"O=C(Nc1cccnc1)c1sccc1OCc1ccccc1[N+](=O)[O-] [1-21, 3-(2-nitrobenzyloxy)-N-(pyridin-3-yl)thiophene-2-carboxamide]",93%
12,"COC(=O)c1ccccc1COc1ccsc1C(=O)Nc1cccnc1 [1-22, 2-[(2-(pyridin-3-ylcarbamoyl)thiophene-3-yl)oxymethyl]methyl benzoate]",81%
13,CC(C)(C)C(=O)Oc1ccc(Cl)c(COc2ccsc2C(=O)Nc2cccnc2)c1 [1-23],53%
14,"O=C(Nc1cccnc1)c1sccc1OCc1ccc(OC(F)(F)F)cc1 [1-54, 3-(4-(trifluoromethoxy)benzyloxy)-N-(pyridin-3-yl)thiophene-2-carboxamide]",57%

# Continued, values first:
row,inhibition at 10 µM,Structure (SMILES)
1,97%,"O=C(Nc1cccnc1)c1sccc1OCc1c(Cl)cccc1Cl [1-3, 3-(2,6-dichlorobenzyloxy)-N-(pyridin-3-yl)thiophene-2-carboxamide]"
2,50%,"O=C(Nc1cccnc1)c1sccc1OCc1ccc2ccccc2c1 [1-11, 3-(naphthalen-2-ylmethoxy)-N-(pyridin-3-yl)thiophene-2-carboxamide]"
3,50%,"Cc1ccc(COc2ccsc2C(=O)Nc2cccnc2)cc1 [1-42, 3-(4-methylbenzyloxy)-N-(pyridin-3-yl)thiophene-2-carboxamide]"
4,70%,"O=C(Nc1cccnc1)c1sccc1OCc1ccc(F)cc1 [1-46, 3-(4-fluorobenzyloxy)-N-(pyridin-3-yl)thiophene-2-carboxamide]"
5,66%,"N#Cc1ccccc1COc1ccsc1C(=O)Nc1cccnc1 [1-50, 3-(2-cyanobenzyloxy)-N-(pyridin-3-yl)thiophene-2-carboxamide]"
6,60%,"N#Cc1cccc(COc2ccsc2C(=O)Nc2cccnc2)c1 [1-51, 3-(3-cyanobenzyloxy)-N-(pyridin-3-yl)thiophene-2-carboxamide]"
7,50%,"N#Cc1ccc(COc2ccsc2C(=O)Nc2cccnc2)cc1 [1-52, 3-(4-cyanobenzyloxy)-N-(pyridin-3-yl)thiophene-2-carboxamide]"
8,65%,"O=C(Nc1cccnc1)c1sccc1OCc1cccc(OC(F)(F)F)c1 [1-55, 3-(3-(trifluoromethoxy)benzyloxy)-N-(pyridin-3-yl)thiophene-2-carboxamide]"
9,50%,"COc1ccc(COc2ccsc2C(=O)Nc2cccnc2)cc1 [1-56, 3-(4-methoxybenzyloxy)-N-(pyridin-3-yl)thiophene-2-carboxamide]"
